Laboratory results reported in ChEMBL document CHEMBL5096222, “Discovery of a Trifluoromethoxy Cyclopentanone Benzothiazole Receptor-Interacting Protein Kinase 1 Inhibitor as the Treatment for Alzheimer's Disease” (J Med Chem, 2022).

Experiment: Cytotoxicity against human HT-29 cells assessed as reduction in cell viability by celltiter-glo luminescent cell viability assay
Assay type: toxicity, cell-based

## CN1C(=O)[C@@H](NC(=O)c2nnc(Cc3ccccc3)[nH]2)COc2ccccc21 [GSK2982772]
  CC50: > 50 µM
